According to patent US11709165B2, “Examination method for prediction of effect of treatment of cancer based on detection of cancer/testis antibodies” (KAWASAKI GAKUEN EDUCATIONAL FOUNDATION, priority 2017, dated 2023):
Read-outs that look alike come from different tables or passages of the source. Where no end group is shown, it is not given here.

What was measured:
[1] = test system: previously treated squamous-cell lung cancer; details: cited from earlier work; for Median survival time (MST): CheckMate-017, primary outcome; for Disease progression rate / Response rate: CheckMate-017
[2] = test system: previously treated non-squamous non-small-cell lung cancer; details: cited from earlier work; for Median survival time (MST): CheckMate-057, primary outcome; for Disease progression rate / Response rate: CheckMate-057
[3] = test system: previously treated non-small-cell lung cancer; details: cited from earlier work
[4] = test system: previously treated non-small-cell lung cancer; details: cited from earlier work; for MST: POPLAR
[5] = Repeated administration toxicity trial for 10 weeks into the dorsal skin; details: both sexes, Sprague-Dawley (Crl:CD(SD)), rat, in vivo; both males and females, 10 weeks repeated administration; read-out: No-observed-adverse-effect level
Protocol: A toxicity trial was performed in which a mixture of SLP1 and SLP2 was repeatedly administered for 10 weeks (intermittently administered five times every 14 days) with an adjuvant into the dorsal skin of Sprague-Dawley rats (Crl:CD(SD), 6-week-old at the start of administration, a group of 10 males and 10 females).
The following two doses were adopted as the doses of the test substances: 0.2 mg/kg (SLP1: 0.2 mg/kg+SLP2: 0.2 mg/kg) and 2 mg/kg (SLP1: 2 mg/kg+SLP2: 2 mg/kg). SLP1 and SLP2 dissolved in water for injection and Picibanil were mixed with an equal amount of an oil adjuvant MONTANIDE ISA 51 VG (ISA51) to provide an emulsion, which was administered into the dorsal skin in an administration volume of 1 mL/kg. Further, a vehicle control group to be administered an emulsion of water for injection and Picibanil with ISA51 and a physiological saline control group to be administered physiological saline were formed.
During the administration period, general condition observation, body weight measurement, and food intake measurement were performed, and urine examination and ophthalmologic examination were performed in week 10 of the administration. At the end of the administration period, hematological examination, blood chemical examination, an autopsy, organ weight measurement, and histopathological examination were performed.

[6] = KEYNOTE-010, tumor PD-L1 expression of 1% or more
[7] = KEYNOTE-010, tumor PD-L1 expression of 50% or more

| Compound | Median survival time (MST) [1] | Disease progression rate [1] | Response rate [1] | Median survival time (MST) [2] | Disease progression rate [2] | Response rate [2] | MST [4] | NOAEL at 1680 h [5] | also measured |
| --- | --- | --- | --- | --- | --- | --- | --- | --- | --- |
| CC(=O)O[C@@]12CO[C@@H]1C[C@H](O)[C@@]1(C)C(=O)[C@H](O)C3=C(C)[C@@H](OC(=O)[C@H](O)[C@@H](NC(=O)OC(C)(C)C)c4ccccc4)C[C@@](O)([C@@H](OC(=O)c4ccccc4)[C@H]21)C3(C)C [docetaxel] | 6.0 months | 30% | 31% | 9.4 months | 29% | 12% | 9.7 months | – | MST [3, 6]: 8.5 months; Response rate [3, 6]: 9.3%; Response rate [3, 7]: 7.9%; Response rate ([4]; group expressing no PD-L1 in the cancer immune microenvironment): about 15% |
| ISQTPGINLDLGSGVKVKIIPKEEH [SLP2] | – | – | – | – | – | – | – | > 2 mg/kg | – |
| NQQLKVGILHLGSRQKKIRIQLRSQ [SLP1] | – | – | – | – | – | – | – | > 2 mg/kg | – |
| atezolizumab | – | – | – | – | – | – | 12.6 months | – | Response rate ([4]; group highly expressing PD-L1 in the cancer immune microenvironment): 38% |
| nivolumab | 9.2 months | 33% | 36% | 12.2 months | 44% | 19% | – | – | – |
| pembrolizumab | – | – | – | – | – | – | – | – | Progression-free survival (PFS) as compared to docetaxel group [3, 6]: No significant difference; PFS as compared to docetaxel group [3, 7]: significantly improved |
